# Activity calls are given as the source filed them. No cut-off for these calls is given here.
# Columns and labels:
# Cannabinoid receptor 1 [1] = molecular target: T1, Cannabinoid receptor 1 (Rattus norvegicus, UniProt P20272); assay: Displacement of [3H]-CP-55,940 from CB1R in rat brain membranes measured by radioligand based competition binding assay; format: cell membranes, Membrane
# Rattus norvegicus [2] = assay: Hypothermic effect in female Sprague-Dawley rat model assessed as reduction in body temperature at 0.01 to 10 mg/kg measured as ED50 after 30 to 360 mins; format: functional; conditions: dose 0.01-10 mg/kg, time 30-360 min
# Cannabinoid receptor 1 [3] = molecular target: T1, Cannabinoid receptor 1; assay: Agonist activity at rat CB1 receptor expressed in HEK293 cells assessed as inhibition of forskolin-induced cAMP accumulation measured for 60 mins by Lance Ultra cAMP assay; format: functional, cell-based
# [4] = molecular target: Cannabinoid receptor 1 (Rattus norvegicus) (UniProt P20272); assay: Agonist activity at rat CB1 receptor expressed in HEK293 cells assessed as inhibition of forskolin-induced cAMP accumulation measured for 60 mins by Lance Ultra cAMP assay relative to control; format: functional, cell-based; conditions: filed as agonist
# Rattus norvegicus [5] = assay: Antinociceptive activity against female Sprague-Dawley rat model of thermal-induced nociception at 0.01 to 10 mg/kg measured after 30 to 360 mins by tail flick test; format: functional; conditions: dose 0.01-10 mg/kg, time 30-360 min
# Rattus norvegicus [6] = assay: Hypothermic effect in female Sprague-Dawley rat model assessed as reduction in body temperature at 10 to 30 mg/kg after 30 to 360 mins; format: functional; conditions: dose 10-30 mg/kg; time 30-360 min
# Cannabinoid receptor 1 [7] = molecular target: T2, Cannabinoid receptor 1 (Homo sapiens, UniProt P21554); assay: Agonist activity at N-terminal 3HA-tagged human CB1 receptor expressed in CHO cells assessed as inhibition of forskolin-induced cAMP accumulation measured for 30 mins by FRET assay; format: functional, cell-based
# Cannabinoid receptor 1 [8] = molecular target: T2, Cannabinoid receptor 1; assay: Agonist activity at N-terminal 3HA-tagged human CB1 receptor expressed in CHO cells assessed as inhibition of forskolin-induced cAMP accumulation measured for 30 mins by FRET assay relative to control; format: functional, cell-based; conditions: filed as agonist
# Cannabinoid receptor 1 [9] = molecular target: T2, Cannabinoid receptor 1; assay: Agonist activity at human CB1 receptor expressed in CHO-K1 cells assessed as assessed as induction of beta-arrestin 2 recruitment measured for 90 mins by PathHunter assay; format: functional, cell-based
# Cannabinoid receptor 1 [10] = molecular target: T2, Cannabinoid receptor 1; assay: Agonist activity at human CB1 receptor expressed in CHO-K1 cells assessed as assessed as induction of beta-arrestin 2 recruitment measured for 90 mins by PathHunter assay relative to control; format: functional, cell-based; conditions: filed as agonist
# Rattus norvegicus [11] = assay: Hypothermic effect in female Sprague-Dawley rat model assessed as reduction in body temperature at 0.3 to 1 mg/kg after 90 mins; format: functional, organism-based; conditions: dose 0.3-1 mg/kg
# Rattus norvegicus [12] = assay: Antinociceptive activity against female Sprague-Dawley rat model of thermal-induced nociception at 0.3 to 1 mg/kg assessed as increase in tail flick latency measured after 30 to 360 mins by tail flick test; format: functional, organism-based; conditions: dose 0.3-1 mg/kg, time 30-360 min
# Rattus norvegicus [13] = assay: Hypothermic effect in female Sprague-Dawley rat model assessed as reduction in body temperature at 0.01 to 10 mg/kg measured after 30 to 360 mins; format: functional; conditions: dose 0.01-10 mg/kg; time 30-360 min
# T2 sequence (P21554 whole entry): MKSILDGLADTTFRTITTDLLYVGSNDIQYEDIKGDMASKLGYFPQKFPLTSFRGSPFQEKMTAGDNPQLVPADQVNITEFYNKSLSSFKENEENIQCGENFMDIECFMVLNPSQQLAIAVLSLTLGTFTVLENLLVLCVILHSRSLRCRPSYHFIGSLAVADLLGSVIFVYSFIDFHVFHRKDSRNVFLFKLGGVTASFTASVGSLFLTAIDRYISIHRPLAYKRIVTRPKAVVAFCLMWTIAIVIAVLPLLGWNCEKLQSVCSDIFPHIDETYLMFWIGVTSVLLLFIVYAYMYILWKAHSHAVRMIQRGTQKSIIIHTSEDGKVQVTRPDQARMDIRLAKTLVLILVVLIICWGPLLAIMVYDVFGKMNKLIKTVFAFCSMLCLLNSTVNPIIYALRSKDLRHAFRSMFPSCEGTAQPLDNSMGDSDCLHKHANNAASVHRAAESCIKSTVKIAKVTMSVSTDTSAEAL
# Cannabinoid receptor 1 (Rattus norvegicus), sequence (P20272 whole entry): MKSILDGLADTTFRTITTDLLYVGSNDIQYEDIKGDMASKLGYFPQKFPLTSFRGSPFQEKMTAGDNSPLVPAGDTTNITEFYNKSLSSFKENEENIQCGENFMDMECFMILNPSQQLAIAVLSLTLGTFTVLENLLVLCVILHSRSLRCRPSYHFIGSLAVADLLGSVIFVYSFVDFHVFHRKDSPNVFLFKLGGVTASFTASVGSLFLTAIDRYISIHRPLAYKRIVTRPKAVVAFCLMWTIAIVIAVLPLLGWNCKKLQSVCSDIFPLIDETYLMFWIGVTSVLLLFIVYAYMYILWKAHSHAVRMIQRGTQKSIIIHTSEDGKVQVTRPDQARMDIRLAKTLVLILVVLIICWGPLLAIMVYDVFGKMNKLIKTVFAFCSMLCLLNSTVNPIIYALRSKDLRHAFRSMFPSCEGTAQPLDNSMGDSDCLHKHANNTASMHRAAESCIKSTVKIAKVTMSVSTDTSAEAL
# T1 sequence (P20272 whole entry): as above
SMILES,Ki (Cannabinoid receptor 1 [1]),further results
CC1(C)Oc2cc(C3(CCCCBr)CCC3)cc(O)c2[C@@H]2C[C@@H](O)CC[C@H]21,1.11 nM,–
CC1(C)Oc2cc(C3(CCCCCN=[N+]=[N-])CCC3)cc(O)c2[C@@H]2CC(=O)CC[C@H]21,0.66 nM,–
CC1(C)Oc2cc(C3(CCCCCCBr)CCC3)cc(O)c2[C@@H]2C[C@H](O)CC[C@H]21,0.38 nM,–
CC1(C)Oc2cc(C3(CCCBr)CCC3)cc(O)c2[C@@H]2CC(=O)CC[C@H]21,45.7 nM,–
CC1(C)Oc2cc(C3(CCCCN=[N+]=[N-])CCC3)cc(O)c2[C@@H]2C[C@H](O)CC[C@H]21,0.57 nM,–
CC1(C)Oc2cc(C3(CCCCCN=C=S)CCC3)cc(O)c2[C@@H]2CC(=O)CC[C@H]21,4.91 nM,–
CC1(C)Oc2cc(C3(CCCCN4CCOCC4)CCC3)cc(O)c2[C@@H]2CC(=O)CC[C@H]21,4 nM,–
CC1(C)Oc2cc(C3(CCCCN=[N+]=[N-])CCC3)cc(O)c2[C@@H]2CC(=O)CC[C@H]21,11 nM,–
CCCCCCC(C)(C)c1cc(O)c2c(c1)OC(C)(C)C1CCC(=O)CC21 (stereo not given) [NABILONE],–,ED50 (Rattus norvegicus [2]): 0.38 mg/kg
CC1(C)Oc2cc(C3(CCCCCCBr)CCC3)cc(O)c2[C@@H]2C[C@@H](O)CC[C@H]21,1 nM,–
CC1(C)Oc2cc(C3(CCCCC#N)CCC3)cc(O)c2[C@@H]2C[C@H](O)CC[C@H]21,0.55 nM,–
CC1(C)Oc2cc(C3(CCCCCCN4CCOCC4)CCC3)cc(O)c2[C@@H]2C[C@H](O)CC[C@H]21,43.9 nM,–
CC1(C)Oc2cc(C3(CCCCN=[N+]=[N-])CCC3)cc(O)c2[C@@H]2C[C@@H](O)CC[C@H]21,8.2 nM,–
CC1(C)Oc2cc(C3(CCCCCC#N)CCC3)cc(O)c2[C@@H]2C[C@@H](O)CC[C@H]21,0.61 nM,EC50 (Cannabinoid receptor 1 [3]): 2 nM; Emax [4]: 97%
CC1(C)Oc2cc(C3(CCCCCC#N)CCC3)cc(O)c2[C@@H]2C[C@H](O)CC[C@H]21,0.69 nM,EC50 (Cannabinoid receptor 1 [3]): 3.9 nM; Emax [4]: 108%
CC1(C)Oc2cc(C3(CCCCCCBr)CCC3)cc(O)c2[C@@H]2CC(=O)CC[C@H]21,0.46 nM,–
CC1(C)Oc2cc(C3(CCCCC#N)CCC3)cc(O)c2[C@@H]2CC(=O)CC[C@H]21,3.4 nM,–
CC1(C)Oc2cc(C3(CCCBr)CCC3)cc(O)c2[C@@H]2C[C@H](O)CC[C@H]21,8.75 nM,–
CC1(C)Oc2cc(C3(CCCCBr)CCC3)cc(O)c2[C@@H]2CC(=O)CC[C@H]21,18 nM,–
CC1(C)Oc2cc(C3(CCCC#N)CCC3)cc(O)c2[C@@H]2C[C@H](O)CC[C@H]21,4.6 nM,–
CCCCCc1cc(O)c2c(c1)OC(C)(C)[C@@H]1CCC(C)=C[C@@H]21 [DRONABINOL],–,ED50 (Rattus norvegicus [5]): 1.3 mg/kg; T (Rattus norvegicus [6]): 2.8 °C
CC1(C)Oc2cc(C3(CCCCBr)CCC3)cc(O)c2[C@@H]2C[C@H](O)CC[C@H]21,1.2 nM,–
CC1(C)Oc2cc(C3(CCCCCN=[N+]=[N-])CCC3)cc(O)c2[C@@H]2C[C@@H](O)CC[C@H]21,0.92 nM,–
CC1(C)Oc2cc(C3(CCCCN=C=S)CCC3)cc(O)c2[C@@H]2CC(=O)CC[C@H]21,8.2 nM,–
CC1(C)Oc2cc(C3(CCCCN=C=S)CCC3)cc(O)c2[C@@H]2C[C@H](O)CC[C@H]21,1.45 nM,–
CC1(C)Oc2cc(C3(CCCCCC#N)CCC3)cc(O)c2[C@@H]2CC(=O)CC[C@H]21,0.55 nM,EC50 (Cannabinoid receptor 1 [3]): 8.6 nM; Emax [4]: 126%; EC50 (Cannabinoid receptor 1 [7]): 1.4 nM; Emax (Cannabinoid receptor 1 [8]): 94%; EC50 (Cannabinoid receptor 1 [9]): 7.5 nM; Emax (Cannabinoid receptor 1 [10]): 93%; ED50 (Rattus norvegicus [5]): 0.14 mg/kg; ED50 (Rattus norvegicus [2]): 0.16 mg/kg; Activity (Rattus norvegicus [11]): Active; Activity (Rattus norvegicus [12]): Active; T (Rattus norvegicus [13]): 6 °C
CC1(C)Oc2cc(C3(CCCCCN4CCOCC4)CCC3)cc(O)c2[C@@H]2CC(=O)CC[C@H]21,1.9 nM,–
CC1(C)Oc2cc(C3(CCCCN4CCOCC4)CCC3)cc(O)c2[C@@H]2C[C@H](O)CC[C@H]21,1.1 nM,–
CC1(C)Oc2cc(C3(CCCCC#N)CCC3)cc(O)c2[C@@H]2C[C@@H](O)CC[C@H]21,1.9 nM,–

# — ChEMBL document CHEMBL5154703, “Improved cyclobutyl nabilone analogs as potent CB1 receptor agonists” (Eur J Med Chem, 2022)
